Assay [1] has as its system Human iPS-derived motor neuron. The assay is described as follows: Pharmacological effect of antibody-MMAE conjugates: axonal amount (Tuj1 staining) in motor neuron neurospheres with LRRTM2 bead-induced presynapse. The format is cell-based. The settings on record: normalized to Cont. IgG-MMAE set to 100%; 1µg/mL, 30 minutes with 100µM 4-aminopyridine, then 24 hours culture; Tuj1 brightness. Here is the method:
Human iPS-derived motor neuron (40HU-005-2M; ixcells biotechnologies) was thawed using Dead Cell Removal kit (Veritas) according to the protocol of the kit. The cells after thawing were plated in 96-well plates (V-bottom) at a density of 2×10^4 cells/well and cultured in the motor neuron culture medium (Motor Neuron Maintenance Medium; ixcells biotechnologies) for 1 week to prepare neurospheres. The prepared neurospheres were selected based on size and roundness, and those satisfying this criterion were used in the subsequent experiments.
After coating a 96-well EZVIEW (registered trademark) culture plate LB (AGC Technoglass Co., Ltd.) with poly-D-lysine and Geltrex (registered trademark) Matrix (Thermo Fisher Scientific), the selected neurospheres were then plated and cultured for 20 days. As the medium, the above-described motor neuron culture medium was used first, and medium change with the same medium was performed on the second day of culture. Thereafter, medium was changed three times per week using neuronal medium (Neurobasal plus medium (B27 plus supplement (Thermo Fisher Scientific), 20ng/mL BDNF, 20ng/mL GDNF, and penicillin-streptomycin were added)). Each medium change was performed at 50 µL/well.
Microbeads coated with the extracellular domain of LRRTM2 (active beads) were prepared as disclosed in WO2021/006075. […]

The target of assay [2] is human Synaptotagmin 2 expressed on HEK293T cells (human) (UniProt Q8N9I0). As to the kind of experiment: flow cytometry on HEK293T cells expressing human SYT2 at 0.01 µg/mL antibody; reference is the polyclonal rabbit anti-SYT2 N-terminal antibody (Synaptic Systems 105 223). Background: Flow cytometry measures light scatter and fluorescence of single cells or particles in a stream.

Where a SMILES comes first, the peptide text is derived from it. [ ]: non-standard residue; d: D form. The star is where a group is joined. Dolaproine = CO[C@@H]([C@@H]1CCCN1)[C@@H](C)C(=O)O; Dil = CC[C@H](C)[C@H](NC)[C@@H](CC(=O)O)OC; X1 = C[C@@H](N*)[C@@H](O)c1ccccc1; NMeV = CN[C@H](C(=O)O)C(C)C

Chain of UniProt Q8N9I0 (Q8N9I0 whole entry): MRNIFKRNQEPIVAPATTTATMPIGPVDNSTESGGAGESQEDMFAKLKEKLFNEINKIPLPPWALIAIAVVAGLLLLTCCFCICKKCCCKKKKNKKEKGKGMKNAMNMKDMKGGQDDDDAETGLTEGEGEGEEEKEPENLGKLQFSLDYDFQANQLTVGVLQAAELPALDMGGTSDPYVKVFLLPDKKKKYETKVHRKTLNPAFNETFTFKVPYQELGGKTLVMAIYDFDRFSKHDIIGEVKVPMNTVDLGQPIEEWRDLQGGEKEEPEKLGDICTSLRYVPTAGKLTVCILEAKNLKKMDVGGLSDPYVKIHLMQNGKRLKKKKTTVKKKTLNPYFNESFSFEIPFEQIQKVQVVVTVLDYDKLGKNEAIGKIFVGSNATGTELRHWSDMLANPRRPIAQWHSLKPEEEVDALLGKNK

Turning to `CC[C@H](C)[C@@H]([C@@H](CC(=O)N1CCC[C@H]1[C@H](OC)[C@@H](C)C(=O)N[C@H](C)[C@@H](O)c1ccccc1)OC)N(C)C(=O)[C@@H](NC(=O)[C@@H](NC)C(C)C)C(C)C` [MMAE, monomethyl auristatin E] (H-[NMeV]V[Dil][Dolaproine]-X1), the “relative amount of axon” value in assay [1] was “no significant differences”.

B1: monoclonal antibody according to the present invention (anti-Synaptotagmin 2 intravesicular domain (N-terminal) monoclonal antibody) (antibody, V domains shown)
VH: EVQLQQSGAELVRPGASVKLSCTASGFNIKDDYVHWVKQRPEQGLEWIGWIDPENGDTEYASKFQGKATITADASSNAAYLQLSSLTSEDTAAYYCTTDYYNNPFAYWGQGTLVTVSA
VL: QIVLTQSPAIMSASPGEKVTITCSASSSVSYMHWFQQKPGTSPKLWIYSTSKLASGVPVRFSGSGSGTSYSLTISRMEAEDAATYYCQQRSSYPFTFGSGTKLEIK
In turn, B1 yielded a fluorescence intensity relative to the control polyclonal antibody in assay [2] of 2 fold.

Values taken from patent EP4796561A1, “ANTI-SYNAPTOTAGMIN 2 ANTIBODY” (Jiksak Bioengineering, Inc., priority 2023, dated 2025).
